In ChEMBL document CHEMBL1201862, “PubChem BioAssay data set” (2004):
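Interpolation was linear, between the two tested concentrations surrounding the appropriate level; five concentrations were tested over 48 hours in 96-well plates. GI50 = concentration required for 50% inhibition of growth.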 Activity calls are given as the source filed them. Cut-off read from the data, not from the text of the source: active = GI50 up to about 1.1 µM and inactive = higher.

How the values were obtained:
Experiment in all cases: NCI-60 cell line screen, 48 h
CCRF-CEM = test system: CCRF-CEM
IGROV-1 = test system: IGROV-1
SF-268 = test system: SF-268
OVCAR-8 = test system: OVCAR-8
SK-OV-3 = test system: SK-OV-3
SF-539 = test system: SF-539
U-251 = test system: U-251
786-0 = test system: 786-0
SR = test system: SR
A549 = test system: A549
SK-MEL-2 = test system: SK-MEL-2
TK-10 = test system: TK-10
NCI-H460 = test system: NCI-H460
SNB-19 = test system: SNB-19
PC-3 = test system: PC-3
MDA-MB-231 = test system: MDA-MB-231
LOX IMVI = test system: LOX IMVI
UACC-257 = test system: UACC-257
DU-145 = test system: DU-145
OVCAR-3 = test system: OVCAR-3
HL-60 = test system: HL-60
RXF 393 = test system: RXF 393
SK-MEL-28 = test system: SK-MEL-28
M14 = test system: M14
OVCAR-5 = test system: OVCAR-5
SNB-75 = test system: SNB-75
UACC-62 = test system: UACC-62
SF-295 = test system: SF-295
SK-MEL-5 = test system: SK-MEL-5
HOP-92 = test system: HOP-92
Hs-578T = test system: Hs-578T
HCC 2998 = test system: HCC 2998
MCF7 = test system: MCF7
SW-620 = test system: SW-620
KM12 = test system: KM12
EKVX = test system: EKVX
NCI-H226 = test system: NCI-H226
HOP-62 = test system: HOP-62
Malme-3M = test system: Malme-3M
MDA-MB-435 = test system: MDA-MB-435
UO-31 = test system: UO-31
CAKI-1 = test system: CAKI-1
T47D = test system: T47D
COLO 205 = test system: COLO 205
NCI/ADR-RES = test system: NCI/ADR-RES
OVCAR-4 = test system: OVCAR-4
K562 = test system: K562
HT-29 = test system: HT-29
HCT-15 = test system: HCT-15
RPMI-8226 = test system: RPMI-8226
MDA-N = test system: MDA-N
NCI-H23 = test system: NCI-H23
ACHN = test system: ACHN
SN12C = test system: SN12C
BT-549 = test system: BT-549
HCT-116 = test system: HCT-116
MOLT-4 = test system: MOLT-4

Measured: GI50

CCOC(=O)C(NC(=O)c1ccccc1)(Nc1ccc(S(=O)(=O)Nc2nc(C)cc(C)n2)cc1)C(F)(F)F (configuration not stated)
active: SK-OV-3 0.778 µM
inactive: CCRF-CEM > 100 µM | IGROV-1 > 100 µM | SF-268 > 100 µM | OVCAR-8 > 100 µM | SF-539 > 100 µM | U-251 > 100 µM | 786-0 > 100 µM | SR > 100 µM | A549 > 100 µM | SK-MEL-2 > 100 µM | TK-10 > 100 µM | NCI-H460 > 100 µM | SNB-19 > 100 µM | PC-3 > 100 µM | MDA-MB-231 86.5 µM | LOX IMVI > 100 µM | UACC-257 > 100 µM | DU-145 > 100 µM | OVCAR-3 > 100 µM | HL-60 > 100 µM | RXF 393 > 100 µM | SK-MEL-28 > 100 µM | M14 > 100 µM | OVCAR-5 > 100 µM | SNB-75 > 100 µM | UACC-62 > 100 µM | SF-295 > 100 µM | SK-MEL-5 > 100 µM | HOP-92 > 100 µM | Hs-578T > 100 µM | HCC 2998 > 100 µM | MCF7 > 100 µM | SW-620 > 100 µM | KM12 > 100 µM | EKVX > 100 µM | NCI-H226 > 100 µM | HOP-62 > 100 µM | Malme-3M > 100 µM | MDA-MB-435 > 100 µM | UO-31 > 100 µM | CAKI-1 > 100 µM | T47D > 100 µM | COLO 205 > 100 µM | NCI/ADR-RES > 100 µM | OVCAR-4 > 100 µM | K562 > 100 µM | HT-29 > 100 µM | RPMI-8226 > 100 µM | MDA-N > 100 µM | NCI-H23 > 100 µM | ACHN > 100 µM | SN12C > 100 µM | BT-549 > 100 µM | HCT-116 > 100 µM | MOLT-4 > 100 µM
> 100 µM: HCT-15
